Measured values taken from US8187586B2, “Methods of inducing apoptosis in hyperproliferative cells” (Case Western Reserve University, priority 2001, dated 2012).

How the values were obtained:
[1] = test system: Jurkat cells; assay: Western blot of endogenous KChAP (899 antibody) after apoptotic stimulus; format: cell-based; details: for signal of the 68 kD KChAP doublet (899 antibody): STS 1 μM
From the text: (§1) Antibodies and Western Blotting Two antibodies were used to monitor intracellular levels of KChAP protein in control and Ad/KChAP infected cells. Antibody 899 was raised against a bacterial fusion protein which consisted of the C-terminal 169 amino acids of KChAP (Wible et al, 1998; Kuryshecv et al 2000). It recognizes both endogenous and overexpressed KChAP. Antibody 088 was raised against a peptide in the N-terminus of KChAP which is not present in PIAS3 (SPSPLASIPPTLLTPGTLL-GPKREVDMH, SEQ ID NO. 3). Antibody 088 recognizes only overexpressed, not endogenous, KChAP. Affinity purified antibodies were used in Western blotting. Other antibodies used for Western blotting to detect the following proteins were obtained from commercial sources: p53 (DO-1; Santa Cruz Biotech.), STAT1, STAT3, and cyclins A, B, and D3 (Transduction Labs), actin (clone AC-40, Sigma), phospho-p53 (ser 15) (Cell Signaling Tech. Inc.), PARP (we used two antibodies interchangeably which recognize both intact and cleaved PARP; one from Cell Signaling Inc., and one from Pharmingen), monoclonal Rb (Pharmingen), and p21 (WAF1 Ab1; Oncogene Res. Pdts).
(§2) Cells were lysed in a buffer consisting of 1% Triton-X 100, 150 mM NaCl, 50 mM Tris, 1 mM EDTA, pH 7.5 containing freshly added protease inhibitors (Complete, Roche Mol. Biol.) and the phosphatase inhibitors sodium fluoride (50 mM) and sodium orthovanadate (1 mM) for 30 minutes on ice. Insoluble debris was pelleted at 20,800×g for 10 minutes at 4° C. Lysate protein concentrations were determined by the BCA method (Pierce), and aliquots were boiled in a reducing SDS sample buffer to denature protein. SDS PAGE gels were blotted to PVDF membranes using a semi-dry blotting apparatus. Blots were blocked overnight in 5% milk (Bio-Rad) in PBS-T (PBS plus 0.1% Tween-20) at 4° C. Primary antibodies diluted in blocking buffer were incubated with the blots for one hour at room temperature (RT). Blots were washed with PBS-T and incubated with HRP (horseradish peroxidase)-conjugated secondary antibodies (Amersham Pharmacia) in blocking buffer for 1 hour at RT. Blots were developed with the ECL-Plus kit (Amersham Pharmacia).
(§3) We observed an increase in the amount of endogenous KChAP detected in cells exposed to STS. […] Multiple bands are detected in both cell lysates with the 899 antibody; a 68 kD doublet which is close to the predicted molecular weight of KChAP and PIAS3 and an upper band of about 85 kD. […] The signal then drops to control levels or lower after about 6 hours in LNCaP cells and around 4 to 6 hours in Jurkat cells. This peak in immunoreactivity largely precedes detection of PARP cleavage, a marker for apoptosis. […] There was no change in the 85 kD band. […]

[2] = test system: LNCaP cells; assay: as above; format: cell-based, human
From the text: as §1, §2, §3

[3] = test system: prostate cancer cells and breast cancer cells versus cardiomyocytes; assay: Sensitivity of cancer versus non-cancerous cells to KChAP overexpression; format: cell-based

Molecule: CN[C@@H]1C[C@H]2O[C@@](C)([C@@H]1OC)n1c3ccccc3c3c4c(c5c6ccccc6n2c5c31)C(=O)NC4 [staurosporine]
- KChAP content of Jurkat cells [1]: greatly increases their KChAP content
- apoptosis in Jurkat cells [1]: causes apoptosis
- signal of the 68 kD KChAP doublet (899 antibody) [1]: immunoreactivity increases
- signal of the 68 kD KChAP doublet (899 antibody) ([1]; listed as STS): increased as early as one hour after the addition of STS
- signal of the 68 kD KChAP doublet (899 antibody) ([2]; LNCaP, STS 1 μM): immunoreactivity increases
- time after which KChAP signal drops to control levels or lower ([2]; LNCaP, STS 1 μM): about 6 hours
- signal of the 68 kD KChAP doublet (899 antibody) ([2]; LNCaP, STS 1 μM, listed as STS): increased as early as one hour after the addition of STS

Molecule: CC[C@@]1(O)C(=O)OCc2c1cc1n(c2=O)Cc2cc3ccccc3nc2-1 [camptothecin]
- pattern of KChAP immunoreactivity after apoptotic inducing drug ([2]; cell line not specified, data not shown): the same pattern was also obtained

B1: KChAP: potassium channel modulatory protein, human sequence SEQ ID NO:2, overexpressed in cells (protein, listed as Homo sapiens)
chain: MKIKELYRRRFPRKTLGPSDLSLLSLPPGTSPVGSPGPLAPIPPTLLAPGTLLGPKREVDMHPPLPQPVHPDVTMKPLPFYEVYGELIRPTTLASTSSQRFEEAHFTFALTPQQVQQILTSREVLPGAKCDYTIQVQLRFCLCETSCPQEDYFPPNLFVKVNGKLCPLPGYLPPTKNGAEPKRPSRPINITPLARLSATVPNTIVVNWSSEFGRNYSLSVYLVRQLTAGTLLQKLRAKGIRNPDHSRALIKEKLTADPDSEVATTSLRVSLMCPLGKMRLTVPCRALTCAHLQSFDAALYLQMNEKKPTWTCPVCDKKAPYESLIIDGLFMEILSSCSDCDEIQFMEDGSWCPMKPKKEASEVCPPPGYGLDGLQYSPVQGGDPSENKKKVEVIDLTIESSSDEEDLPPTKKHCSVTSAAIPALPGSKGVLTSGHQPSSVLRSPAMGTLGGDFLSSLPLHEYPPAFPLGADIQGLDLFSFLQTESQHYGPSVITSLDEQDALGHFFQYRGTPSHFLGPLAPTLGSSHCSATPAPPPGRVSSIVAPGGALREGHGGPLPSGPSLTGCRSDIISLD
- sensitivity of cancer cells relative to non-cancerous cells such as cardiomyocytes [3]: about ten times more sensitive
